This test has as its target T1, HDAC6 (Homo sapiens, UniProt Q9UBN7).
T1 sequence (Q9UBN7 1-1215): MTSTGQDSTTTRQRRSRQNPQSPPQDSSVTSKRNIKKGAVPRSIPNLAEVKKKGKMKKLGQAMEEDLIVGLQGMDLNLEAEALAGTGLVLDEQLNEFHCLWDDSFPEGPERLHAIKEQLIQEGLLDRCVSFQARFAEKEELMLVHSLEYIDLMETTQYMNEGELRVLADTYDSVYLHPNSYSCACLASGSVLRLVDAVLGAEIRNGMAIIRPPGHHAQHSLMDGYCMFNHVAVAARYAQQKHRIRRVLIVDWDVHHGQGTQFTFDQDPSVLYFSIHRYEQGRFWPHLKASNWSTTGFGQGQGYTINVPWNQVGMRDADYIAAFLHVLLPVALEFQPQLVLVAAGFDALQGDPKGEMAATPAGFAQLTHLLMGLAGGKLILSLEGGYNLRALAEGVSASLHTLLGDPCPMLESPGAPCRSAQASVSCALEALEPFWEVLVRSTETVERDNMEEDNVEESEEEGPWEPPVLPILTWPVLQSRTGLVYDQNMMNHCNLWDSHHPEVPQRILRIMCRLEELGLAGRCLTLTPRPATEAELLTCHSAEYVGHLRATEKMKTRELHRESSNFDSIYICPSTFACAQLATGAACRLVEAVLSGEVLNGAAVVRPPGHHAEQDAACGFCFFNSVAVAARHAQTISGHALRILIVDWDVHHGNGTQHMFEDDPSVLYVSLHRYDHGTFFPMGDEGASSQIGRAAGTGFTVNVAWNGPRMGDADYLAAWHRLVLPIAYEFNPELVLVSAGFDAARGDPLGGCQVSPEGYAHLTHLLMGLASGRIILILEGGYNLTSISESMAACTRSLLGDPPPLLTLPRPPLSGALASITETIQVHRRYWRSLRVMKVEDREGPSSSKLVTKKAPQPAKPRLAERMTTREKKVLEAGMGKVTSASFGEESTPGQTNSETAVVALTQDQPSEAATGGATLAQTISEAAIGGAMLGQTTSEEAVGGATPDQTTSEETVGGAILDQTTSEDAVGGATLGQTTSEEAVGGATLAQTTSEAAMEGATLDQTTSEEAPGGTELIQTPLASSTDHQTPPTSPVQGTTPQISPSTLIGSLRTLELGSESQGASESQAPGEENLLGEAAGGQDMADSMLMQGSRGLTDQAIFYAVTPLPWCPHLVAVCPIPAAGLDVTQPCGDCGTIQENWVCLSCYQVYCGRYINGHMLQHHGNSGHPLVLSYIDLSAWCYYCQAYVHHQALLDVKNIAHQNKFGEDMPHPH
Briefly: Human HDAC enzyme inhibitor Fluor-de-Lys assay, HDAC6. Format: biochemical. Conditions: 1.3 nM enzyme, 2.5 μM substrate BML-KI104, 3 h pre-incubation, 60 min reaction; read-out: HDAC6_IC50. The source says: Recombinant human HDAC8 (catalog number BML-SE145-0100) and HDAC10 (catalog number BML-SE559-0050) enzymes, HDAC substrates BML-KI104 and BML-KI178, and HDAC developer solutions BML-KI105 and BML-KI176 were purchased from Enzo Life Sciences (Farmingdale, NY). Recombinant human HDAC5 and HDAC11 were purchased from BPS Bioscience (San Diego, CA)(catalog numbers 50045 and 50021). Substrate Boc-Lys(TFA)-AMC was obtained from Bachem (Bupendorf, Switzerland) (catalog number 1-1985). HDAC inhibitor suberoylanilide hydroxamic acid (SAHA) was obtained from Indofine (Hillsborough Township, NJ) and trichostatin A (TSA) was obtained from Sigma-Aldrich (St. Louis, MO). […] HEPES pH 8.0 was obtained from Boston BioProducts (Ashland, MA), Tween-20 from Fisher Scientific (Hampton, NH)(catalog number BP337), TCEP from Calbiochem and 7.5% bovine serum albumin (BSA) from Life Technologies (Carlsbad, CA) (catalog number 15260037). 384-well, black assay plates were obtained from Corning (Corning, NY) (catalog number 3575).
The histone deacetylase activities of HDAC1, HDAC2, HDAC3, HDAC6, and HDAC8 were measured in modified Fluor-de-Lys assays in 384-well format. In this assay, HDAC enzymes are initially incubated with an ε-acetyl (or -trifluoroacetyl)-L-lysine-containing substrate with a C-terminal amide having aminomethylcoumarin as the amine component. HDACs cleave the ε-acetyl group, rendering the resulting product susceptible to AMC cleavage by trypsin. The released AMC is then detected by its fluorescence.
The HDAC 1, 2 assays employed buffer A, which contained 20 mM HEPES, pH 8.0, 1 mM MgCl2, 137 mM NaCl, 2.7 mM KCl, 0.05% BSA. The HDAC3/SMRT assay employed buffer B, consisting of 20 mM HEPES, pH 8.0, 1 mM MgCl2, 50 mM NaCl, 2.7 mM KCl, 0.05% BSA, 0.005% Tween 20, and 10 μM IP4. The HDAC6 assay employed buffer C, consisting of 20 mM HEPES, pH 8.0, 1 mM MgCl2, 137 mM NaCl, 2.7 mM KCl, 0.5 mM TCEP (Calbiochem) and 0.05% BSA. The HDAC8 assay employed buffer D, consisting of 20 mM HEPES, pH 8.0, 1 mM MgCl2, 100 mM NaCl, 20 mM KCl, 0.1% n-octyl-β-D-glucoside (Anatrace, Maumee, OH) and 0.05% BSA. All steps were performed at room temperature (23° C.). The assay was performed by pre-incubating serial dilutions of test compounds with the target HDAC prior to initiation with substrate. Each compound was titrated in a 10-point dose response, using a 1:3 fold dilution scheme, with 0.15 ul of solution added by ECHO555 to the plate, followed by the addition of 20 μl of the appropriate HDAC isoform diluted in appropriate assay buffer. […] Final conditions used for each assay were: 1. HDAC 1, 0.3 nM total enzyme, 20 μM substrate BML-K1104; 2. HDAC 2, 1.5 nM total enzyme, 40 μM substrate BML-K1104; 3. HDAC 3/SMRT, 0.3 nM total enzyme, 20 μM substrate BML-K1104; 4. HDAC 6, 1.3 nM total enzyme, 2.5 μM substrate BML-K1104; 5. HDAC 8, 1.3 nM total enzyme, 200 μM substrate BML-K1178; the final high dose of test compound was 30 μM. For potent compounds, 900 nM was used as the final high dose. The reactions were stopped and developed by addition of 30 ul of HDAC developer solution containing a saturating level of HDAC inhibitor as follows: 1.
`COc1nc2ccccc2cc1-c1cnc([C@H](COCCCC(=O)c2ncco2)NC(=O)CN(C)C)[nH]1` [Compound 13, N-{(1R)-1-[5-(2-methoxyquinolin-3-yl)-1H-imidazol-2-yl]-2-[4-(1,3-oxazol-2-yl)-4-oxobutoxy]ethyl}-N~2~,N~2~- dimethylglycinamide]: the IC50 is more than 45 µM. `COc1nc2ccccc2cc1-c1cnc([C@H](COCCCC(=O)c2ncco2)NC(=O)C23CCN(CC2)CC3)[nH]1` [Compound 12, N-{(1R)-1-[5-(2-methoxyquinolin-3-yl)-1H-imidazol-2-yl]-2-[4-(1,3-oxazol-2-yl)-4-oxobutoxy]ethyl}-1-azabicyclo[2.2.2]octane-4-carboxamide]: the IC50 is more than 45 µM.

In the case of `COc1cc2nc(C)ccc2cc1-c1cnc([C@H](COCCCC(=O)c2cc(C)on2)NC(=O)[C@H]2CC23CCN(C)CC3)[nH]1` [Compound 20, (1S)-N-{(1R)-1-[5-(7-methoxy-2-methylquinolin-6-yl)-1H-imidazol-2-yl]-2-[4-(5-methylisoxazol-3-yl)-4-oxobutoxy]ethyl}-6-methyl-6-azaspiro[2.5]octane-1-carboxamide], the IC50 was more than 0.9 µM. For `Cc1ccc2cc(-c3cnc([C@H](CSCCCC(=O)c4ncco4)NC(=O)[C@H]4CC45CCN(C)CC5)[nH]3)ccc2n1` [Compound 21, (1S)-6-methyl-N-[(1R)-1-[5-(2-methylquinolin-6-yl)-1H-imidazol-2-yl]-2-{[4-(1,3-oxazol-2-yl)-4-oxobutyl]sulfanyl}ethyl]-6-azaspiro[2.5]octane-1-carboxamide], the IC50 was found to be 19.3 µM. `COc1nc2ccccc2cc1-c1cnc([C@H](COCCCC(=O)c2ccon2)NC(=O)CN(C)C)[nH]1` [Compound 14, N-{(1R)-2-(4-isoxazol-3-yl-4-oxobutoxy)-1-[5-(2-methoxyquinolin-3-yl)-1H-imidazol-2-yl]ethyl}-N~2~,N~2~- dimethylglycinamide]: the IC50 was more than 45 µM. `CCC(=O)CCCOC[C@H](NC(=O)C12CCN(CC1)CC2)c1ncc(-c2cc3ccccc3nc2OC)[nH]1` [Compound 6, N-{(1R)-1-[5-(2-methoxyquinolin-3-yl)-1H-imidazol-2-yl]-2-[(4-oxohexyl)oxy]ethyl}-1-azabicyclo[2.2.2]octane-4-carboxamide]: the IC50 is more than 45 µM. For the compound `CN1CC(C(=O)N[C@@H](COCCCC(=O)c2ccon2)c2ncc(-c3ccccc3F)[nH]2)C1` [Compound 15, N-[(1R)-1-[5-(2-fluorophenyl)-1H-imidazol-2-yl]-2-(4-isoxazol-3-yl-4-oxobutoxy)ethyl]-1-methylazetidine-3-carboxamide], the IC50 is more than 0.9 µM. Regarding `CN1CCC2(CC1)C[C@@H]2C(=O)N[C@@H](COCCCC(=O)c1ccon1)c1[nH]c(-c2ccc(F)cc2)nc1Cl` [Compound 18, (1S)-N-[(1R)-1-[4-chloro-2-(4-fluorophenyl)-1H-imidazol-5-yl]-2-(4-isoxazol-3-yl-4-oxobutoxy)ethyl]-6-methyl-6-azaspiro[2.5]octane-1-carboxamide], the IC50 is more than 0.9 µM. `CN(C)CC(=O)N[C@@H](COCCCC(=O)c1ccon1)c1[nH]c(-c2ccc(F)cc2)nc1Cl` [Compound 17, N-[(1R)-1-[4-chloro-2-(4-fluorophenyl)-1H-imidazol-5-yl]-2-(4-isoxazol-3-yl-4-oxobutoxy)ethyl]-N~2~,N~2~- dimethylglycinamide]: the IC50 was more than 0.9 µM. Turning to `CNC(=O)C(=O)CCCOC[C@H](NC(=O)C12CCN(CC1)CC2)c1ncc(-c2cc3ccccc3nc2OC)[nH]1` [Compound 9, N-[(1R)-1-[5-(2-methoxyquinolin-3-yl)-1H-imidazol-2-yl]-2-{[5-(methylamino)-4,5-dioxopentyl]oxy}ethyl]-1-azabicyclo[2.2.2]octane-4-carboxamide], the IC50 was more than 45 µM. The value for `COc1nc2ccccc2cc1-c1cnc([C@H](COCCCC(=O)c2ncco2)NC(=O)c2cncs2)[nH]1` [Compound 10, N-{(1R)-1-[5-(2-methoxyquinolin-3-yl)-1H-imidazol-2-yl]-2-[4-(1,3-oxazol-2-yl)-4-oxobutoxy]ethyl}-1,3-thiazole-5-carboxamide] was more than 45 µM; that for `N[C@@H](COCCCC(=O)c1ccon1)c1ncc(-c2ccccc2F)[nH]1` [Compound 2, (R)-4-(2-amino-2-(5-(2-fluorophenyl)-1H-imidazol-2-yl)ethoxy)-1-(isoxazol-3-yl)butan-1-one] was more than 0.9 µM; that for `CNC(=O)C(=O)CCCOC[C@H](NC(=O)c1cncs1)c1ncc(-c2cc3ccccc3nc2OC)[nH]1` [Compound 8, N-[(1R)-1-[5-(2-methoxyquinolin-3-yl)-1H-imidazol-2-yl]-2-{[5-(methylamino)-4,5-dioxopentyl]oxy}ethyl]-1,3-thiazole-5-carboxamide] was 5.11 µM. For `CN1CC(C(=O)N[C@@H](COCCCC(=O)c2ccon2)c2[nH]c(-c3ccc(F)cc3)nc2Cl)C1` [Compound 16, N-[(1R)-1-[4-chloro-2-(4-fluorophenyl)-1H-imidazol-5-yl]-2-(4-isoxazol-3-yl-4-oxobutoxy)ethyl]-1-methylazetidine-3-carboxamide], the IC50 is more than 0.9 µM. Turning to `COc1nc2ccccc2cc1-c1cnc([C@H](COCCCC(=O)c2ncco2)NC(=O)[C@H]2CC23CCN(C)CC3)[nH]1` [Compound 11, (1S)-N-{(1R)-1-[5-(2-methoxyquinolin-3-yl)-1H-imidazol-2-yl]-2-[4-(1,3-oxazol-2-yl)-4-oxobutoxy]ethyl}-6-methyl-6-azaspiro[2.5]octane-1-carboxamide], the IC50 is more than 45 µM. For `CCC(=O)CCCOC[C@H](NC(=O)c1cncs1)c1ncc(-c2cc3ccccc3nc2OC)[nH]1` [Compound 5, N-{(1R)-1-[5-(2-methoxyquinolin-3-yl)-1H-imidazol-2-yl]-2-[(4-oxohexyl)oxy]ethyl}-1,3-thiazole-5-carboxamide] the value was more than 45 µM.
